Laboratory results taken from patent US20110212968A1, “PHENETHYLAMIDE DERIVATIVES AND THEIR HETEROCYCLIC ANALOGUES” (priority 2008, published 2011).
pIC50: −log10 of the molar value.

Tests used:
[1] = biological target: T1, human orexin-2 receptor (Homo sapiens, UniProt O43614); assay: Intracellular calcium measurement (FLIPR Tetra), orexin receptor antagonistic activity, OX2; assay type: cell-based; conditions: CHO cells expressing human orexin-2 receptor, 3 nM orexin-A
T1 construct: expressed in transfected cells; host or cells: CHO (Chinese hamster ovary) cells, kept under G418 selection
T1 sequence (O43614 1-444): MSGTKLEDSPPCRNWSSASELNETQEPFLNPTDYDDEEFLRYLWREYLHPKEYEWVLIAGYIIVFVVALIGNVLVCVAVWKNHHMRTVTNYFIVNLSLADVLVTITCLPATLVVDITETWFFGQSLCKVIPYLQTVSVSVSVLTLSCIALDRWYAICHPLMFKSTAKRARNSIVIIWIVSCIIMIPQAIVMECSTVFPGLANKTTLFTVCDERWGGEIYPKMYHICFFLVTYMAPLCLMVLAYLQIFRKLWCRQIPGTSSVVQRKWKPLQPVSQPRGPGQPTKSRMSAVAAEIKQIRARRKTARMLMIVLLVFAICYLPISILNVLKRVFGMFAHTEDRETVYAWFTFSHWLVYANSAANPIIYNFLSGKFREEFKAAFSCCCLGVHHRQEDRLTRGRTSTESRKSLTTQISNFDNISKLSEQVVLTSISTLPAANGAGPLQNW
Outline: (§1)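 Recombinant CHO cells expressing human OX1 or OX2, loaded with fluo-4 AM plus probenecid, were preincubated with antagonist 10 min, then stimulated with 3 nM human orexin-A. Peak fluorescence was compared with vehicle; IC50 derived, sometimes normalized to an on-plate reference compound; two pipetting/cell-splitting conditions were used.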

[2] = biological target: T2, human orexin-1 receptor (Homo sapiens, UniProt O43613); assay: Intracellular calcium measurement (FLIPR Tetra), orexin receptor antagonistic activity, OX1; assay type: cell-based; conditions: CHO cells expressing human orexin-1 receptor, 3 nM orexin-A
T2 construct: expressed in transfected cells; host or cells: CHO (Chinese hamster ovary) cells, kept under G418 selection
T2 sequence (O43613 1-425): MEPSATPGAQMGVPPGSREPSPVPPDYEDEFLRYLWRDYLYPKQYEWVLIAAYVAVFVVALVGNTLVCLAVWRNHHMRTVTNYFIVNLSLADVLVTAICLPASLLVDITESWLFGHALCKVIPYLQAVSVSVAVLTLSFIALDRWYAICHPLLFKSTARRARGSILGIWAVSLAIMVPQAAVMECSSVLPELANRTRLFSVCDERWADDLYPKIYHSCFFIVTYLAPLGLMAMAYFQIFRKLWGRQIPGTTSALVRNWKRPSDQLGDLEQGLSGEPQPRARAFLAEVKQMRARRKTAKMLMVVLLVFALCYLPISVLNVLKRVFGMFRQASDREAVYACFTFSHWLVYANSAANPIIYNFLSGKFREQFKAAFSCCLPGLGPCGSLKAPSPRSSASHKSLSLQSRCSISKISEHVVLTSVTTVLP
Outline: as §1

[3] = conditions B, normalized (*) using IC50 of on-plate reference compound

| SMILES | pIC50 [1, 3] | pIC50 [2, 3] | pIC50 ([1]; conditions B) | pIC50 ([2]; conditions B) | other results |
| --- | --- | --- | --- | --- | --- |
| O=C(c1ncccc1-c1cc(Cl)cnc1F)N(CCc1c[nH]c2ccc(F)cc12)CC1CC1 [Example 403, 5′-Chloro-2′-fluoro-[3,3′]bipyridinyl-2-carboxylic acid cyclopropylmethyl-[2-(5-fluoro-1H-indol-3-yl)-ethyl]-amide] | 6.64 | 5.42 | – | – | – |
| COc1cc(CCN(CC2CC2)C(=O)c2nc(C)sc2-c2ccc(C)c(C)c2)c(OC)cc1I [Example 213, 5-(3,4-Dimethyl-phenyl)-2-methyl-thiazole-4-carboxylic acid cyclopropylmethyl-[2-(4-iodo-2,5-dimethoxy-phenyl)-ethyl]-amide] | – | – | 6.82 | 6.80 | – |
| Cc1ccc(-c2nccnc2C(=O)N(CCc2c[nH]c3cc(Cl)ccc23)CC2CC2)cc1C [Example 331, 3-(3,4-Dimethyl-phenyl)-pyrazine-2-carboxylic acid [2-(6-chloro-1H-indol-3-yl)-ethyl]-cyclopropylmethyl-amide] | 7.66 | 7.21 | – | – | – |
| COc1cc(CCN(CC2CC2)C(=O)c2nc(N)sc2-c2cccc(C)c2)cc(OC)c1OC(C)C [Example 173, 2-Amino-5-m-tolyl-thiazole-4-carboxylic acid cyclopropylmethyl-[2-(4-isopropoxy-3,5-dimethoxy-phenyl)-ethyl]-amide] | – | – | 7.92 | 6.83 | – |
| COc1ccc(CCN(CC(C)C)C(=O)c2nc(N)sc2-c2cccc(C)c2)cc1OC [Example 113, 2-Amino-5-m-tolyl-thiazole-4-carboxylic acid [2-(3,4-dimethoxy-phenyl)-ethyl]-isobutyl-amide] | – | – | 8.10 | 6.48 | – |
| Cc1nc(-c2ccc(Cl)cc2)c(C(=O)N(CCc2c[nH]c3ccc(F)cc23)CC2CC2)s1 [Example 262, 4-(4-Chloro-phenyl)-2-methyl-thiazole-5-carboxylic acid cyclopropylmethyl-[2-(5-fluoro-1H-indol-3-yl)-ethyl]-amide] | 6.33 | 5.04 | – | – | – |
| CSc1cncc(-c2sc(C)nc2C(=O)N(CCc2c[nH]c3ccc(F)cc23)CC2CC2)c1 [Example 424, 2-Methyl-5-(5-methylsulfanyl-pyridin-3-yl)-thiazole-4-carboxylic acid cyclopropylmethyl-[2-(5-fluoro-1H-indol-3-yl)-ethyl]-amide] | 7.33 | 6.74 | – | – | – |
| CCN(CCc1c[nH]c2ccccc12)C(=O)c1cncnc1-c1ccc(Cl)c(Cl)c1 [Example 544, 4-(3,4-Dichloro-phenyl)-pyrimidine-5-carboxylic acid ethyl-[2-(1H-indol-3-yl)-ethyl]-amide] | 7.82 | 6.75 | – | – | – |
| COc1ccc(-c2sc(C)nc2C(=O)N(CCc2c[nH]c3ccc(F)cc23)CC(F)F)cn1 [Example 307, 5-(6-Methoxy-pyridin-3-yl)-2-methyl-thiazole-4-carboxylic acid (2,2-difluoro-ethyl)-[2-(5-fluoro-1H-indol-3-yl)-ethyl]-amide] | 7.70 | 6.46 | – | – | – |
| CN(C)c1nc(C(=O)N(CCc2c[nH]c3cc(F)c(Cl)cc23)CC2CC2)c(-c2ccccc2)s1 [Example 472, 2-Dimethylamino-5-phenyl-thiazole-4-carboxylic acid [2-(5-chloro-6-fluoro-1H-indol-3-yl)-ethyl]-cyclopropylmethyl-amide] | 6.68 | 7.55 | – | – | – |
| COc1ccc(CCN(CC2CC2)C(=O)c2ccncc2-c2cccc(C)c2)cc1OC [Example 386, N-Cyclopropylmethyl-N-[2-(3,4-dimethoxy-phenyl)-ethyl]-3-m-tolyl-isonicotinamide] | – | – | 8.30 | 6.63 | – |
| Cc1ccc(-c2nccnc2C(=O)N(CCc2c[nH]c3c(C)cccc23)CC2CC2)cc1C [Example 337, 3-(3,4-Dimethyl-phenyl)-pyrazine-2-carboxylic acid cyclopropylmethyl-[2-(7-methyl-1H-indol-3-yl)-ethyl]-amide] | 8.30 | 7.80 | – | – | – |
| COCCN(CCc1ccc(OC)c(OC)c1)C(=O)c1nc(C)sc1-c1cccc(F)c1 [Example 127, 5-(3-Fluoro-phenyl)-2-methyl-thiazole-4-carboxylic acid [2-(3,4-dimethoxy-phenyl)-ethyl]-(2-methoxy-ethyl)-amide] | – | – | 7.80 | 5.95 | – |
| COc1ccc(CCN(CCO)C(=O)c2nc(C)sc2-c2cccc(F)c2)cc1OC [Example 124, 5-(3-Fluoro-phenyl)-2-methyl-thiazole-4-carboxylic acid [2-(3,4-dimethoxy-phenyl)-ethyl]-(2-hydroxy-ethyl)-amide] | – | – | 7.09 | 5.83 | – |
| Cc1cccc(-c2oc(C3CC3)nc2C(=O)N(CCc2c[nH]c3ccccc23)CC2CC2)c1 [Example 607, 2-Cyclopropyl-5-m-tolyl-oxazole-4-carboxylic acid cyclopropylmethyl-[2-(1H-indol-3-yl)-ethyl]-amide] | 7.46 | 6.42 | – | – | – |
| CCCN(CCc1ccc(OC)c(OC)c1)C(=O)c1nc(C)sc1-c1cccc(F)c1 [Example 109, 5-(3-Fluoro-phenyl)-2-methyl-thiazole-4-carboxylic acid [2-(3,4-dimethoxy-phenyl)-ethyl]-propyl-amide] | – | – | 8.22 | 6.32 | – |
| Cc1cccc2c(CCN(CC3CC3)C(=O)c3nccnc3-c3cncnc3)c[nH]c12 [Example 438, 3-Pyrimidin-5-yl-pyrazine-2-carboxylic acid cyclopropylmethyl-[2-(7-methyl-1H-indol-3-yl)-ethyl]-amide] | 7.30 | < 4.96 | – | – | – |
| O=C(c1cncnc1-c1ccccc1)N(CCc1c[nH]c2ccccc12)CC1CC1 [Example 497, 4-Phenyl-pyrimidine-5-carboxylic acid cyclopropylmethyl-[2-(1H-indol-3-yl)-ethyl]-amide] | 8.00 | 6.64 | – | – | – |
| COc1ccc(CCN(C)C(=O)c2nc(N)sc2-c2cccc(C)c2)cc1OC [Example 104, 2-Amino-5-m-tolyl-thiazole-4-carboxylic acid [2-(3,4-dimethoxy-phenyl)-ethyl]-methyl-amide] | – | – | 8.30 | 6.39 | – |
| COc1ccc(CCN(CC2CC2)C(=O)c2sc(C)nc2-c2ccc(C)cc2)cc1OC [Example 49, 2-Methyl-4-p-tolyl-thiazole-5-carboxylic acid cyclopropylmethyl-[2-(3,4-dimethoxy-phenyl)-ethyl]-amide] | – | – | – | – | pIC50 ([1]; conditions A): 7.66; pIC50 ([2]; conditions A): 5.37 |
| COc1ccc(-c2sc(C)nc2C(=O)N(CCc2c[nH]c3ccc(F)cc23)CC2CC2)cn1 [Example 421, 5-(6-Methoxy-pyridin-3-yl)-2-methyl-thiazole-4-carboxylic acid cyclopropylmethyl-[2-(5-fluoro-1H-indol-3-yl)-ethyl]-amide] | 8.40 | 7.47 | – | – | – |
| COc1ccc2[nH]cc(CCN(CC3CC3)C(=O)c3nccnc3-c3ccccc3)c2c1 [Example 322, 3-Phenyl-pyrazine-2-carboxylic acid cyclopropylmethyl-[2-(5-methoxy-1H-indol-3-yl)-ethyl]-amide] | 7.62 | 6.72 | – | – | – |
| COc1ccc(CCN(CC(=O)N(C)C)C(=O)c2nc(N)sc2-c2cccc(C)c2)cc1OC [Example 135, 2-Amino-5-m-tolyl-thiazole-4-carboxylic acid [2-(3,4-dimethoxy-phenyl)-ethyl]-dimethylcarbamoylmethyl-amide] | – | – | 6.84 | < 5.00 | – |
| CCN(C)c1nc(C(=O)N(CCc2c[nH]c3ccccc23)CC2CC2)c(-c2ccccc2F)s1 [Example 500, 2-(Ethyl-methyl-amino)-5-(2-fluoro-phenyl)-thiazole-4-carboxylic acid cyclopropylmethyl-[2-(1H-indol-3-yl)-ethyl]-amide] | 6.72 | 6.59 | – | – | – |
| CCN(CCc1c[nH]c2ccccc12)C(=O)c1nccnc1-c1cccc(OC)c1 [Example 533, 3-(3-Methoxy-phenyl)-pyrazine-2-carboxylic acid ethyl-[2-(1H-indol-3-yl)-ethyl]-amide] | 6.59 | 5.63 | – | – | – |
| COc1ccc(CCN(CC2CC2)C(=O)c2sc(C)nc2-c2ccc(Cl)cc2)cc1OC [Example 48, 4-(4-Chloro-phenyl)-2-methyl-thiazole-5-carboxylic acid cyclopropylmethyl-[2-(3,4-dimethoxy-phenyl)-ethyl]-amide] | – | – | – | – | pIC50 ([1]; conditions A): 7.77; pIC50 ([2]; conditions A): 5.31 |
